The values that follow come from PMC2923755, “Thermolability of mutant MMACHC protein in the vitamin B12-responsive cblC disorder” (Molecular Genetics and Metabolism, 2010).

Positions count from the first letter of the chain named. pKd: −log10 of the molar value. Where “and” joins values, the source holds several entries; their conditions need not be identical. Equal values may be shown once. Entries after “also recorded” stand apart in the source; their conditions may differ.

Series [1] deals with T1, MMACHC-wt (Homo sapiens, UniProt Q9Y4U1).
T1 construct: His-tag (N, cleaved yes); made in house; host or cells: E. coli BL21 DE3
T1 sequence (Q9Y4U1 1-282): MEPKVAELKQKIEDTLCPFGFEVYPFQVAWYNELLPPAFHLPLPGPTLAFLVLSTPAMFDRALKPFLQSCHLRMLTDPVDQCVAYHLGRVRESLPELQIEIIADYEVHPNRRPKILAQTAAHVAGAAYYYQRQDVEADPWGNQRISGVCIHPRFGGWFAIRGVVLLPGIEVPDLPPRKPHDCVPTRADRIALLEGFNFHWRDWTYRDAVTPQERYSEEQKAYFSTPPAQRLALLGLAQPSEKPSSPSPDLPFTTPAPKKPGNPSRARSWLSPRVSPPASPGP
Details: method as in PMID 19700356. As to conditions: published Kd; unit printed in b1 only; cited from earlier work.

For series [2], the target named is T2, MMACHC-R161Q (Homo sapiens, UniProt Q9Y4U1, R161Q).
T2 construct: His-tag (N, cleaved yes); made in house; host or cells: E. coli BL21 DE3
T2 sequence (Q9Y4U1 1-282 R161Q): T1 sequence (Q9Y4U1 1-282) with R161Q
Details: method as in PMID 19700356. As to conditions: cited from earlier work; for cobalamin binding: recombinant protein, in words.

Series [3] deals with MMACHC-G147D. More on the design: method as in PMID 19700356. Conditions: recombinant protein, in words; cited from earlier work.
Series [4] concerns the target T1, MMACHC-wt. The experiment in a line: Differential scanning fluorimetry (DSF), stabilization by cobalamins. In kind it is binding. As to conditions: for ΔTm max: Tm at 50 μM ligand minus Tm at 0 μM ligand. Here is the method:
(§1) DSF was performed and analyzed as described in Niesen et al., with minor modifications. Purified MMACHC proteins were diluted to 0.1 mg/ml (3 μM) in buffer (10 mM HEPES pH 7.5, 0.5 M NaCl, 5% glycerol) with 1:1000 Sypro Orange (Invitrogen) and run in triplicate. The proteins were heated from 5 to 75 °C with a ramp rate of 1 °C/min in a thermocycler (Bio-rad C1000 Thermocycler, CFX96 Real-time system). All graphs were normalized so that minimum fluorescence was set to 0 and maximum fluorescence set to 1. […] Final graphs and AC50’s were generated using Kadeidagraph 4.0 software (Synergy Software, Reading, PA). AC50’s were determined by fitting the ΔTm vs. ligand concentration curves to the equation ΔTm = ΔTm max[S]/(AC50 + [S]) where ΔTm is the change in melting temperature (Tm[protein + ligand] − Tm[protein]), ΔTm max is the maximal change in Tm at saturating (50 μM) ligand concentration and [S] is the ligand concentration.
(§2) Wild-type (MMACHC-wt) and mutant (MMACHC-R161Q) MMACHC were expressed and purified to >95% purity, with His-tag removed, as judged by SDS–PAGE (Fig. 2A). In order to investigate the thermostability of MMACHC we used DSF, a method that measures protein stability and ligand-induced changes in stability [[20,21]]. DSF uses an environmentally sensitive dye, such as Sypro orange, to monitor protein-unfolding caused by heat denaturation. As the protein unfolds, the dye, which has a higher fluorescence quantum yield in nonpolar environments than in aqueous media, binds to hydrophobic regions of the protein, causing a large increase in fluorescence [[22,23]]. Protein stability is expressed as the melting point of the protein (Tm), that is, the transition midpoint of the fluorescence curve, corresponding to the temperature at which half of the protein molecules are folded and half are unfolded. […] Even lower was the stability of MMACHC-R161Q (Tm = 37.1 ± 0.7 °C) (Fig. 2B). The difference in Tm was small but nonetheless significant (p < 0.01). A second difference between the wild-type and mutant proteins was the shape of the unfolding curves, with the unfolding of the mutant protein showing high cooperativity indicating a two-state unfolding mechanism while the unfolding of the wild-type protein stretched over a larger temperature range and comprised two phases (Fig. 2B; also Fig. 3A at 0 μM OHCbl).

The target in series [5] is T2, MMACHC-R161Q. Described as above. In kind it is binding. As to conditions: DSF; for ΔTm max: Tm at 50 μM ligand minus Tm at 0 μM ligand. Here is the method: as §1, §2
Series [6] is described as follows: UV-visible absorption spectra of free cobalamin. It is filed as physicochemical. As to conditions: for α/β-Peak: nm; for γ-Peak: wavelength. The procedure: (§3) To determine base-on or base-off binding, 5 μM of the appropriate cobalamin or cobinamde in buffer (100 mM Tris, pH 7.0), was incubated in the dark with 400 μl total of 50 μM MMACHC protein (wild-type or R161Q), prepared in the same buffer, or alone, for 5 min at room temperature. In order to retain the high amounts of protein necessary for these experiments, the His-tag (wt and R161Q) or GST-tag (wt protein) was left on. Absorption spectrum measurements were carried out using a MOS-250 spectrometer and recorded using Bio-Kine 32 v4.20 software.
(§4) In order to determine whether the R161Q mutation interferes with the ability of MMACHC to support this transition, we examined the UV–visible absorption spectra for the proteins bound to AdoCbl, as an example of an alkylcobalamin, as well as for the proteins bound to CNCbl and OHCbl. Each cobalamin was added at a concentration of […] (Fig. 5). To determine whether the cobalamin was base-on or base-off, in the case of CNCbl both base-on and base-off spectra were determined for the free vitamin, as previously reported [[12,14]]. […] Confirming our earlier data, GST-tagged MMACHC-wt bound CNCbl in the base-off state (Table 2). […] Both MMACHC-wt and MMACHC-R161Q bound AdoCbl in the base-off state (Fig. 5; Table 2). […] Finally, neither MMACHC-wt nor MMACHC-R161Q modified OHCbl binding, which retained the base-on profile regardless of the MMACHC species present (Fig. 5; Table 2).

Series [7] has as its target T3, GST-MMACHC-wt (Homo sapiens, UniProt Q9Y4U1).
T3 construct: made in house
T3 sequence (Q9Y4U1 1-282): T1 sequence (Q9Y4U1 1-282)
The experiment in a line: UV-visible absorption spectra, base-on/base-off binding. Conditions: 5 μM cobalamin, 50 μM protein, pH 7.0; for α/β-Peak: nm; for γ-Peak: wavelength. Here is the method:
as §3, §4

Series [8] deals with T4, His-MMACHC-wt (Homo sapiens, UniProt Q9Y4U1).
T4 construct: made in house; host or cells: E. coli BL21 DE3
T4 sequence (Q9Y4U1 1-282): T1 sequence (Q9Y4U1 1-282)
The series is described as above. As to conditions: 5 μM cobalamin, 50 μM protein, pH 7.0; for α/β-Peak: nm; for γ-Peak: wavelength. Here is the method: as §3, §4

Series [9] concerns the target T5, His-MMACHC-R161Q (Homo sapiens, UniProt Q9Y4U1, R161Q).
T5 construct: made in house; host or cells: E. coli BL21 DE3
T5 sequence (Q9Y4U1 1-282 R161Q): T1 sequence (Q9Y4U1 1-282) with R161Q
The series is described as above. As to conditions: 5 μM cobalamin, 50 μM protein, pH 7.0; for α/β-Peak: nm; for γ-Peak: wavelength. The procedure: […] In order to retain the high amounts of protein necessary for these experiments, the His-tag (wt and R161Q) or GST-tag (wt protein) was left on. Absorption spectrum measurements were carried out using a MOS-250 spectrometer and recorded using Bio-Kine 32 v4.20 software.
as §4

Series [10] addresses T5, His-MMACHC-R161Q. The series is described as above. Conditions: 20 μM CNCbl, pH 7.0.
Series [11] addresses T3, GST-MMACHC-wt. Details: method as in PMID 19700356. Conditions: earlier demonstration; cited from earlier work.
Setting [12] is: half-maximal effective ligand concentration for stabilization, 3 μM protein, fit of ΔTm vs ligand concentration.

For orientation: pKd means −log10 of the Kd, conventionally taken in molar units. What is called AC50 is the midpoint of the concentration-response curve, whichever way the signal moves. In the case of `C/C1=C2/[N-][C@H]([C@H](CC(N)=O)[C@@]2(C)CCC(=O)NC[C@@H](C)OP(=O)([O-])O[C@H]2[C@@H](O)[C@@H](n3cnc4cc(C)c(C)cc43)O[C@@H]2CO)[C@]2(C)N=C(/C(C)=C3N=C(/C=C4N=C1[C@@H](CCC(N)=O)C\4(C)C)[C@@H](CCC(N)=O)[C@]\3(C)CC(N)=O)[C@@H](CCC(N)=O)[C@]2(C)CC(N)=O.[Co+3].[OH-]` [OHCbl, Hydroxocobalamin], the pKd in series [1] is 5.22 and 5.24. The results for the cobalamin binding entry in [2] and in series [3] were “wild-type affinity” and “unable to bind”, respectively. Also, the ΔTm max in [4] was 8 °C and 7.9 ± 0.6 °C; in series [5] it was 4 °C and 3.7 ± 0.1 °C. The half-maximal activity concentration (AC50) in [4] (setting [12]) was 3 µM; in [5] (setting [12]), 7 µM and 6.6 µM. The α/β-Peak in series [6] (base-on) is given as 525 nm; in series [7] it was 522 nm; in series [8] it was 532 nm; in [9], 535 nm. Moreover, the γ-Peak in series [6] (base-on) stood at 350 nm; in series [7] it was 355; in series [8], 356; in [9] it was 354. Moreover, the Base-on/off result in series [7] was “On”; in series [8], “base-on and On”; in [9] it was “base-on and On”.

With Cyanocobalamin [CNCbl], the negative logarithm of the Kd (pKd) in series [2] (published Kd, unit printed in b35 only) is 4.70. Further, the results for the cobalamin binding entry in series [2] and in series [3] were “poorly; also recorded: impaired” and “unable to bind”, respectively. Further, the Base-on/off entry was “Off” in [10]; “base-off and Off” in series [7]; “Off” in [8]; “shifted incompletely towards full base-off binding; also recorded: On/Off” in series [9]. The α/β-Peak in series [10] (nm) amounted to 531 nm; in series [6] (base-off), 529 nm; in series [6] (base-on), 551 nm; in series [7], 530 nm; in series [8], 531 nm; in [9], 540 nm. Further, the γ-Peak in series [10] (wavelength) was determined as 359; in series [6] (base-off) it was 355 nm; in series [6] (base-on), 360 nm; in [7], 357; in series [8], 358; in series [9] it was 359. In addition, the “binding conformation (base-on/off)” value in [11] is “base-off”. Moreover, the ΔTm max in series [4] was 3.4 ± 0.6 °C; in series [5] it was 1 °C and 1.1 ± 0.6 °C.
